Test results published in the NIST ThermoML archive (doi:10.1021/acs.jced.8b00015).
Numbers after ± are expanded uncertainties.

Key:
[1] = xn = mol fraction of the nth substance listed; details: 298.15 K, 101.3 kPa, Liquid
[2] = Crystal; DTA

CN(CCO)CCO [N-methyldiethanolamine] + C[N+](C)(C)CCO.[Cl-]
mass density ([1]; Pycnometric method, x2 = 0.125): 1053.8 ± 21 kg/m3
mass density ([1]; Pycnometric method, x2 = 0.143): 1046.8 ± 21 kg/m3

C[N+](C)(C)CCO.[Cl-] [choline chloride] + OCCO
mass density ([1]; Vibrating tube method, x1 = 0.333): 1116.8 ± 22 kg/m3

C[N+](C)(C)CCO.[Cl-] [choline chloride] + OCCOCCO
mass density ([1]; Pycnometric method, x1 = 0.2): 1112.1 ± 22 kg/m3
mass density ([1]; Pycnometric method, x1 = 0.25): 1116.9 ± 22 kg/m3

OCCNCCO [diethanolamine]
Normal melting temperature [2]: 27.00 ± 0.5 °C

OCCNCCO [diethanolamine] + CCCC[N+](CCCC)(CCCC)CCCC.[Br-]
mass density ([1]; Pycnometric method, x2 = 0.143): 1092.7 ± 22 kg/m3

OCCNCCO [diethanolamine] + C[N+](C)(C)CCO.[Cl-]
mass density ([1]; Pycnometric method, x2 = 0.143): 1098.4 ± 22 kg/m3

CCCC[N+](CCCC)(CCCC)CCCC.[Br-] [tetrabutylammonium bromide] + CN(CCO)CCO
mass density ([1]; Pycnometric method, x1 = 0.2): 1056.9 ± 21 kg/m3
mass density ([1]; Pycnometric method, x1 = 0.25): 1051.3 ± 21 kg/m3

CCCC[N+](CCCC)(CCCC)CCCC.[Br-] [tetrabutylammonium bromide] + OCCO
mass density ([1]; Pycnometric method, x1 = 0.2): 1072.7 ± 22 kg/m3
mass density ([1]; Pycnometric method, x1 = 0.25): 1069.8 ± 21 kg/m3
mass density ([1]; Pycnometric method, x1 = 0.333): 1065.8 ± 21 kg/m3

CCCC[N+](CCCC)(CCCC)CCCC.[Br-] [tetrabutylammonium bromide] + OCCOCCO
mass density ([1]; Pycnometric method, x1 = 0.2): 1081.8 ± 22 kg/m3
mass density ([1]; Pycnometric method, x1 = 0.25): 1078.2 ± 22 kg/m3
mass density ([1]; Pycnometric method, x1 = 0.333): 1075.4 ± 22 kg/m3
